Values of other authors, collected in patent US20040132806A1, “Pravastatin pharmaceutical formulations and methods of their use” (priority 2002, published 2004).
Like-named read-outs stand apart in the source and are kept apart here.

Legend:
[1] = patients treated with pravastatin (Schatke et al, 1992)
[2] = intravenous, radiolabeled
[3] = not given; remark: listed apart in the source
[4] = such as the stomach

## CC[C@H](C)C(=O)O[C@H]1C[C@H](O)C=C2C=C[C@H](C)[C@H](CC[C@@H](O)C[C@@H](O)CC(=O)O)[C@H]21 [pravastatin, Pravastatin]
Lennernas & Fager, 1997
  hepatic extraction ratio: 0.45
Quion & Jones, 1994
  hepatic extraction ratio: 0.66
In vivo
  first-pass extraction in the liver (extraction ratio): 0.66
[1]
  myopathy: Severe myopathy has been observed
[2]
  share of total body clearance by non-renal routes (biliary excretion and biotransformation): ~53%
  share of total body clearance via renal excretion: approximately 47%
[3]; PM vs AM dose
  decrease of systemic bioavailability following a bedtime dose (PM) compared to morning (AM) dose: 60%
[3]; based on urinary recovery of radiolabeled drug
  average oral absorption: 34%
[3]; oral radiolabeled dose
  radiolabeled oral dose excreted in the feces: ~70%
  radiolabeled oral dose excreted in urine: Approximately 20%
[4]
  stability in acidic conditions: poor stability
